According to patent US11442059B2, “Method for treating a chronic itch condition by administering small molecule MrgprX4 antagonists” (The Johns Hopkins University, priority 2017, dated 2022):

What was measured:
mouse Mrgpra1 = molecular target: T1, mouse Mrgpra1 (Mus musculus, UniProt Q91WW5); assay: Ca2+ imaging / EC50 determination in HEK293 cells expressing Mrgpra1; format: cell-based
T1 construct: expressed in transfected cells; host or cells: HEK293
T1 sequence (Q91WW5 1-304): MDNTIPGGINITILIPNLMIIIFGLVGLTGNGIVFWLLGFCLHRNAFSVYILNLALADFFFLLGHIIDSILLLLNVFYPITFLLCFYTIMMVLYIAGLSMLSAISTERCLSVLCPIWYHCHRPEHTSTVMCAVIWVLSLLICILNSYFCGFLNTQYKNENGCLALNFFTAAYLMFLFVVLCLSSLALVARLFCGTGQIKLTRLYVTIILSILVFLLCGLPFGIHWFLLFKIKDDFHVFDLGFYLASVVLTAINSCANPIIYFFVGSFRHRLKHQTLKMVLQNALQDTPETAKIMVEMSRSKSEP
Protocol: Lamotrigine (LTG), allopurinol, carbamazepine and oxcarbazepine (all from Sigma) were prepared fresh on the day of the experiment. These drugs were dissolved into dimethyl sulfoxide (DMSO) first, and then were diluted at least 10000× into calcium imaging buffer before use. The final concentrations of drugs for each experiment were indicated in the corresponding figure legend.
In initial experiments, HEK293 cells were plated on 100 μg/ml poly-D-lysine coated glass cover slips, and transiently transfected with vector containing Mrgprs gene, after 24-48 hours of culture, cells were loaded with Fura 2-acetomethoxy ester calcium indicator (0.5 μM, Molecular Probes) along with pluronic F-127 dispersing agent (0.1%, Molecular Probes) for 30 minutes in the dark at 37° C., then washed with calcium imaging buffer (CIB; NaCl 125 mM, KCl 3 mM, CaCl2 2.5 mM, MgCl2 0.6 mM, HEPES 10 mM, glucose 20 mM, NaHCO3 1.2 mM, sucrose 20 mM, brought to pH 7.4 with NaOH). Drugs were added to Fura 2-loaded cells and intracellular free calcium was measured using 340 nm and 380 nm excitation wavelengths with emission measured at 520 nm with a microscope based imaging system (Nikon Eclipse TE200). Changes in emission fluorescence ratios at 340/380 nm excitation were continuously monitored at 1 second intervals. Later, experiments were performed using Mrgpra1-GFP, Mrgprc11-GFP and MRGPRX4-GFP stable cell lines to confirm the findings obtained from the transiently expressing cells.
Mrgpra1 or both wild-type and mutant MRGPRX4 stably expressed HEK cells were plated overnight in 100 μl culture media on 96-well plates. […] After 1 hour of incubation at 37° C., cells were allowed to recover for 10 minutes in the dark at room temperature prior to performing intracellular calcium mobilization assay in a FLEXSTATION® multi-mode plate reader (Molecular Devices). […] Responses were determined by subtracting the minimum signal (at the basal level before adding the drug) from the maximum signal (obtained after stimulating with the drug). […]

MRGPRX2 = molecular target: T2, MRGPRX2 (Homo sapiens, UniProt Q96LB1); assay: Cell membrane chromatography, MRGPRX2/CMC column; format: binding; conditions: affinity chromatography elution profile
T2 construct: expressed in transfected cells; host or cells: HEK293 (MRGPRX2-HEK) membranes on silica
T2 sequence (Q96LB1 1-330): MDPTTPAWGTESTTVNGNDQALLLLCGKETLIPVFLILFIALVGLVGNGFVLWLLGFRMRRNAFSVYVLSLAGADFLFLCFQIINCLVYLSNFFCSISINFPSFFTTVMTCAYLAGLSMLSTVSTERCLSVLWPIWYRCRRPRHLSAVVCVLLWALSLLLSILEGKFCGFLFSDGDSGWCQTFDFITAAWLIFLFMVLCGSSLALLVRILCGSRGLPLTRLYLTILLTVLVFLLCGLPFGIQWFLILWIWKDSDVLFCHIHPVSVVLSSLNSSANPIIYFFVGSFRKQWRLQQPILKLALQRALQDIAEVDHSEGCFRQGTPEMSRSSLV
Protocol: CMC analysis was performed with a Shimadzu LC-2010A apparatus that consisted of pumps, degasser, autosampler, column oven, and a diode-array detector (Shimadzu, Kyoto, Japan). The data were acquired by the Lab-solution program (Shimadzu). The mobile phase consisted of phosphate-buffered saline (PBS; 5 mM, pH 7.4) and was delivered at a flow rate of 0.2 ml/min. The stock solutions (100 μM) of lamotrigine were prepared by separately dissolving the standard drugs in methanol. Standard solutions at various concentrations were prepared by diluting the stock solutions with the mobile phase. The MRGPRX2/CMC and MRGPRX4/CMC column was prepared as follows. Briefly, MRGPRX4-expressed HEK293 cells (1×10^8) were harvested and centrifuged (1000 g, 10 min, at 4° C.). Cells were washed with physiological saline (pH=7.4) by centrifugation at 1000 g for 10 min at 4° C. Cells were lysed by ultrasonic in Tris-HCl (50 mM, pH=7.4) for 30 min and centrifuged twice at 1000 g for 10 min at 4° C. The collected supernatant was then centrifuged at 12000 g for 20 min at 4° C. and the pellet was resuspended in 5 ml ice-cold physiological saline solution. […] The cell membrane suspension was homogenized/adsorbed with the activated silica under vacuum with agitation at 4° C. overnight. […]

Nc1nnc(-c2cccc(Cl)c2Cl)c(N)n1 [LTG, Lamotrigine]
EC50 (mouse Mrgpra1; HEK293 cells, Ca2+ assay): ~30 µM | activation of mouse Mrgpra1 (Ca2+ imaging) (mouse Mrgpra1; Mrgprs individually expressed in HEK293 cells): specifically activated | retention on MRGPRX2/CMC column (MRGPRX2): cannot retain
